US20250340561A1, “QUINAZOLINE COMPOUND FOR INDUCING DEGRADATION OF G12D MUTANT KRAS PROTEIN” (Astellas Pharma Inc., priority 2021, published 2025)
Counter-ions that a name gives are not always drawn. Like-named read-outs stand apart in the source and are kept apart here.

Legend:
[1] = test system: phosphorylation of ERK (Thr202/Tyr204); experiment: Test Example 2: ERK phosphorylation inhibition action in AsPC-1, Cell ELISA; format: cell-based, human; conditions: AsPC-1 cells, 0% = 1 μM trametinib
Description: Test Example 2: Evaluation of ERK Phosphorylation Inhibition Action on Human G12D Mutant KRAS-Positive Pancreatic Cancer Line AsPC-1
The ERK phosphorylation inhibition action of test compounds was evaluated by measuring phosphorylation of the 202th threonine (Thr202) and the 204th tyrosine (Tyr204) of ERK located downstream of the KRAS signal by Cell ELISA.
AsPC-1 cells were seeded on a 384-well plate (from Greiner bio-one) at 36 μL/well to give 2.0×10^4 cells per well. As for the cell culture conditions, a RPMI 1640 medium containing 10% fetal bovine serum was used in the presence of 5% CO2 at 37° C.
The next day, the test compounds (6 points having final concentrations in the range of 10 μM to 3.0 nM), trametinib (MEK inhibitor) of a final concentration of 1 μM as a positive control and DMSO, which was the solvent for the test compounds, as a negative control were diluted 100-fold with a fresh medium and were added at 4 μL per well. The cells were then cultured for 24 hours. After culturing, a 30% glyoxal solution (40% glyoxal [from Nacalai Tesque] was diluted with PBS) was quickly added at 30 μL per well, and the plate was allowed to stand for 90 minutes at room temperature to thus immobilize the cells. Then, the plate was centrifuged to remove the supernatant (using a centrifugal dehydrator machine, the supernatant was removed by the same method hereinafter), and 0.1% Triton X-100-containing PBS was added at 20 μL per well. After allowing to stand for 10 minutes at room temperature, the supernatant was removed by centrifugation, and the same operation was further repeated. Next, 0.5% SDS-containing PBS was added at 20 μL per well, and after allowing to stand at room temperature for 30 minutes, the supernatant was removed by centrifugation. Subsequently, a blocking solution (Intercept Blocking Buffer) was added at 20 μL per well, and the plate was allowed to stand for 1 hour at room temperature. The supernatant was removed by centrifugation, and an ERK (Thr202/Tyr204) phosphorylation antibody (Phospho-p44/42 MAPK (Erk 1/2) (Thr202/Tyr204) (D13.14.4E) XP Rabbit mAb; from Cell Signaling Technology) diluted 2,500-fold with a blocking solution was added at 10 or 15 μL per well as a primary antibody. The plate was allowed to stand at 4° C. overnight.
The next day, the plate was centrifuged to remove the supernatant. 0.05% Tween-20-containing PBS was added at 50 μL per well, and the supernatant was removed by centrifugation to thus wash each well. The washing was performed three times in total. After washing, Goat anti-Rabbit IgG H&L (IRDye 800CW) diluted 1,000-fold with a blocking solution was added at […] as a secondary antibody, and the plate was allowed to stand for 1 hour at room temperature. The plate was centrifuged to remove the supernatant, and each well was washed three times with 0.05% Tween-20-containing PBS in the same manner as after the primary antibody reaction. After removing the supernatant by centrifuging the plate, the plate was dried as it was with air at room temperature for 3 hours or more, and the 800-nm fluorescent signals were measured with Aerius.
With the signaling value at the time of addition of DMSO taken as 100% and with the signaling value at the time of addition of 1 μM trametinib taken as 0%, the 50% inhibition values (IC50) were calculated by Sigmoid-Emax model nonlinear regression analysis. The molecular weights of the test compounds were calculated as the molecular weights of the dihydrochloride for Example No. 22, the trihydrochlorides for Example Nos. 2-7, 9-12, 14-18 and 30, the tetrahydrochlorides for Example Nos. 19 and 46, the pentahydrochloride for Example No. 21 and the free forms forming no salt for the remaining Example Nos. The results for some test compounds of the formula (I) are shown in Table 3.

[2] = test system: human G12D mutant KRAS-positive pancreatic cancer line AsPC-1; experiment: Test Example 3: non-anchorage-dependent cell growth inhibition, spheroid 3D cell culture; format: cell-based; conditions: AsPC-1 spheroid 3D culture, 6 days, CellTiter Glo 2.0
Description: Test Example 3: Evaluation of Non-Anchorage-Dependent Cell Growth Inhibition Action on Human G12D Mutant KRAS-Positive Pancreatic Cancer Line AsPC-1
The non-anchorage-dependent cell growth inhibition action of test compounds was evaluated by spheroid 3D cell culture.
AsPC-1 cells were seeded on a low-cell-adhesive round bottom 384-well plate (PrimeSurface: from Sumitomo Bakelite) at 36 μL/well to give 5×10^2 cells per well. The cell culture was performed under the same conditions as in the Test Example 2.
The next day, the test compounds (6 points having final concentrations in the range of 10 μM to 3.0 nM) and DMSO, which was the solvent for the test compounds, as a negative control were diluted 100-fold with a fresh medium and were added at 4 μL per well. After culturing in the presence of […] at 37° C. for 6 days, CellTiter Glo 2.0 (from Promega) was added at 20 μL per well. After stirring with a plate mixer (from FINEPCR) at normal temperature for 1 hour, the luminescent signals were measured with ARVO X3 (from PerkinElmer).
With the signaling value in treatment with DMSO taken as […] and with the signaling value in the medium alone without cells taken as […], the […] inhibition values (IC50) were calculated by Sigmoid-Emax model nonlinear regression analysis. The molecular weights of the test compounds were calculated as the molecular weights of the dihydrochloride for Example No. 22, the trihydrochlorides for Example Nos. 2-7, 9-12, 14-18 and 30, the tetrahydrochlorides for Example Nos. 19 and 46, the pentahydrochloride for Example No. 21 and the free forms forming no salt for the remaining Example Nos. The results for some test compounds of the formula (I) are shown in Table 4.

[3] = Homo sapiens, ASPC1, 24 h, read-out: IC50
[4] = Homo sapiens, ASPC1, 144 h, read-out: IC50

Row | SMILES | IC50 ([1]; Homo sapiens, ASPC1, 24 h) | IC50 ([2]; Homo sapiens, ASPC1, 144 h) | other results
1 | Cc1ncsc1-c1ccc([C@H](CO)NC(=O)[C@@H]2C[C@@H](O)CN2C(=O)[C@H](C(C)C)n2cc(-c3ccc(COc4c(-c5c(C)c(F)cc6[nH]ncc56)c(C5CC5)cc5c(N6C[C@@H]7C[C@H]6CN7)nc(OC6CCOCC6)nc45)cc3)nn2)cc1 [Example 7, (4R)-1-[(2S)-2-(4-{4-[({6-cyclopropyl-4-[(1S,4S)-2,5-diazabicyclo[2.2.1]heptan-2-yl]-7-(6-fluoro-5-methyl-1H-indazol-4-yl)-2-[(oxan-4-yl)oxy]quinazolin-8-yl}oxy)methyl]phenyl}-1H-1,2,3-triazol-1-yl)-3-methylbutanoyl]-4-hydroxy-N-{(1R)-2-hydroxy-1-[4-(4-methyl-1,3-thiazol-5-yl)phenyl]ethyl}-L-prolinamide n hydrochloride] | – | – | IC50 [1, 3]: 17 nM; IC50 [2, 4]: 31 nM
2 | CO[C@@H](C)COc1nc(N2C[C@@H]3C[C@H]2CN3)c2cc(C3CC3)c(-c3c(C)c(F)cc4[nH]ncc34)c(OCc3ccc(-c4cn([C@H](C(=O)N5C[C@H](O)C[C@H]5C(=O)N[C@@H](CO)c5ccc(F)cc5)C(C)C)nn4)cc3)c2n1 [Example 58] | 25 nM | 80 nM | –
3 | Cc1ncsc1-c1ccc(C2(NC(=O)[C@@H]3C[C@@H](O)CN3C(=O)[C@@H](NC(=O)c3ccc(COc4c(-c5c(C)c(F)cc6[nH]ncc56)c(C5CC5)cc5c(N6C[C@@H]7C[C@H]6CN7)nc(OC6CCOCC6)nc45)cn3)C(C)C)CC2)cc1 [Example 2] | 779 nM | 1410 nM | –
4 | Cc1ncsc1-c1ccc([C@H](CN(C)C)NC(=O)[C@@H]2C[C@@H](O)CN2C(=O)[C@H](C(C)C)n2cc(-c3ccc(COc4c(-c5c(C)c(F)cc6[nH]ncc56)c(C5CC5)cc5c(N6C[C@@H]7C[C@H]6CN7)nc(OC6CCOCC6)nc45)cc3)nn2)cc1 [Example 19] | – | – | IC50 [1, 3]: 51 nM; IC50 [2, 4]: 138 nM
5 | Cc1ncsc1-c1ccc([C@H](CO)NC(=O)[C@@H]2C[C@@H](O)CN2C(=O)[C@H](C(C)C)n2cc(-c3ccc(COc4c(-c5c(C)c(F)cc6[nH]ncc56)c(C5CC5)cc5c(N6C[C@@H]7C[C@H]6CN7)nc(O[C@H]6CCN(CC(F)F)C6)nc45)cc3)nn2)cc1 [Example 33] | 32 nM | 42 nM | –
6 | CCn1nccc1-c1ccc([C@H](CO)NC(=O)[C@@H]2C[C@@H](O)CN2C(=O)[C@H](C(C)C)n2cc(-c3ccc(COc4c(-c5c(C)c(F)cc6[nH]ncc56)c(C5CC5)cc5c(N6C[C@@H]7C[C@H]6CN7)nc(OC6CCOCC6)nc45)cc3)nn2)cc1 [Example 26] | 8 nM | 20 nM | –
7 | Cc1ncsc1-c1ccc([C@H](CO)NC(=O)[C@@H]2C[C@@H](O)CN2C(=O)[C@H](C(C)C)n2cc(-c3ccc(COc4c(-c5c(C)c(F)cc6[nH]ncc56)c(C5CC5)cc5c(N6C[C@@H]7C[C@H]6CN7)nc(OC[C@@H]6CCOC6)nc45)cc3)nn2)cc1 [Example 50] | 10 nM | 21 nM | –
8 | Cc1c(F)cc2[nH]ncc2c1-c1c(C2CC2)cc2c(N3C[C@@H]4C[C@H]3CN4)nc(OC3CCOCC3)nc2c1OCc1ccc(-c2cn([C@H](C(=O)N3C[C@H](O)C[C@H]3C(=O)N[C@@H](CO)c3ccc(-c4ccnn4C)cc3)C(C)C)nn2)cc1 [Example 23] | – | – | IC50 ([1]; 24 hours): 10 nM; IC50 [2]: 21 nM
9 | CO[C@@H](C)COc1nc(N2C[C@@H]3C[C@H]2CN3)c2cc(C3CC3)c(-c3c(C)c(F)cc4[nH]ncc34)c(OCc3ccc(-c4cn([C@H](C(=O)N5C[C@H](O)C[C@H]5C(=O)N[C@@H](CO)c5ccc(-c6ocnc6C)cc5)C(C)C)nn4)cc3)c2n1 [Example 72] | – | – | IC50 [1, 3]: 16 nM; IC50 [2, 4]: 26 nM
10 | COC[C@@H](C)Oc1nc(N2C[C@@H]3C[C@H]2CN3)c2cc(C3CC3)c(-c3c(C)c(F)cc4[nH]ncc34)c(OCc3ccc(-c4cn([C@H](C(=O)N5C[C@H](O)C[C@H]5C(=O)N[C@@H](CO)c5ccc(-c6scnc6C)cc5)C(C)C)nn4)cc3)c2n1 [Example 40] | 7 nM | 20 nM | –
11 | Cc1ncsc1-c1ccc([C@H](CO)NC(=O)[C@@H]2C[C@@H](O)CN2C(=O)[C@H](C(C)C)n2cc(-c3ccc(COc4c(-c5c(C)c(F)cc6[nH]ncc56)c(C5CC5)cc5c(N6C[C@@H]7C[C@H]6CN7)nc(OC[C@@H]6CCOC6)nc45)cc3)nn2)cc1 [Example 53] | – | – | IC50 ([1]; 24 hours): 10 nM; IC50 [2]: 23 nM
12 | Cc1ncsc1-c1ccc([C@H](CO)NC(=O)[C@@H]2C[C@@H](O)CN2C(=O)[C@H](C(C)C)n2cc(-c3ccc(COc4c(-c5c(C)c(F)cc6[nH]ncc56)c(C5CC5)cc5c(N6C[C@@H]7C[C@H]6CN7)nc(OC[C@H]6CCCN6C)nc45)cc3)nn2)cc1 [Example 60] | 50 nM | 127 nM | –
13 | Cc1ncsc1-c1ccc([C@H](CO)NC(=O)[C@@H]2C[C@@H](O)CN2C(=O)[C@H](C(C)C)n2cc(-c3ccc(COc4c(-c5cc(O)cc(F)c5C)c(C5CC5)cc5c(N6C[C@@H]7C[C@H]6CN7)nc(OC6CCOCC6)nc45)cc3)nn2)cc1 [Example 15] | 22 nM | 64 nM | –
14 | Cc1ncsc1-c1ccc(C2(NC(=O)[C@@H]3C[C@@H](O)CN3C(=O)[C@H](C(C)C)n3cc(-c4ccc(COc5c(-c6c(C)c(F)cc7[nH]ncc67)c(C6CC6)cc6c(N7C[C@@H]8C[C@H]7CN8)nc(OC7CCOCC7)nc56)cc4)nn3)CC2)cc1 [Example 6] | 58 nM | 100 nM | –
15 | Cc1c(F)cc2[nH]ncc2c1-c1c(C2CC2)cc2c(N3C[C@@H]4C[C@H]3CN4)nc(OC3CCOCC3)nc2c1OCc1ccc(-c2cn([C@H](C(=O)N3C[C@H](O)C[C@H]3C(=O)N[C@@H](CO)c3ccc(Br)cc3)C(C)C)nn2)cc1 [Example 12] | 37 nM | 112 nM | –
16 | Cc1ncsc1-c1ccc(CNC(=O)[C@@H]2C[C@@H](O)CN2C(=O)[C@H](C(C)C)n2cc(-c3ccc(COc4c(-c5c(C)c(F)cc6[nH]ncc56)c(C5CC5)cc5c(N6C[C@@H]7C[C@H]6CN7)nc(OC6CCOCC6)nc45)cc3)nn2)cc1 [Example 10] | 26 nM | 114 nM | –
17 | Cc1ncsc1-c1ccc([C@H](CO)NC(=O)[C@@H]2C[C@@H](O)CN2C(=O)[C@H](C(C)C)n2cc(-c3ccc(COc4c(-c5c(C)c(F)cc6[nH]ncc56)c(C5CC5)cc5c(N6C[C@@H]7C[C@H]6CN7)nc(O[C@H](C)CN(C)C)nc45)cc3)nn2)cc1 [Example 46] | 22 nM | 56 nM | –
